# Reference: the supplement of paper PMC10307832
# Tests used:
# Experiment in all cases: relative viability (nuclei count vs DMSO), 5 days (fraction); higher = more cells survive
# [1] = compound: COc1cc2ncn(-c3cc(OCc4ccccc4C(F)(F)F)c(C(N)=O)s3)c2cc1OC
# Method in brief: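 For viability, nuclei in each treated well were divided by nuclei in vehicle wells and the median across plates was taken. Lung cancer cell lines in 1536-well plates were pinned with five library-drug doses (not always all listed) spaced by √10, cultured 5 days without medium change, and imaged at 4× after Hoechst staining, with plates passing only at control CV below 25% and at least one doubling.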
# [2] = compound: COc1cc2ncn(-c3cc(OCc4ccccc4C(F)(F)F)c(C(N)=O)s3)c2cc1OC + CC1(C)CCC(c2ccc(Cl)cc2)=C(CN2CCN(c3ccc(C(=O)NS(=O)(=O)c4ccc(N[C@H](CCN5CCOCC5)CSc5ccccc5)c(S(=O)(=O)C(F)(F)F)c4)cc3)CC2)C1 [Navitoclax] (partner 0.5 µM)
# Method in brief: (§1)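 Values are medians from duplicate plates. Each reflects relative viability, defined as the nuclei count of treated wells over that of vehicle wells. Lung cancer cell lines in 1536-well plates were pin-tool dosed one day after seeding with one drug alone or with a fixed anchor-drug dose plus five library-drug doses (not always all listed) in √10 steps, then fixed, stained and imaged at 4× after 5 days.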
# [3] = compound: COc1cc2ncn(-c3cc(OCc4ccccc4C(F)(F)F)c(C(N)=O)s3)c2cc1OC + COc1cc2c(Oc3ccc(NC(=O)C4(C(=O)Nc5ccc(F)cc5)CC4)cc3F)ccnc2cc1OCCCN1CCOCC1 [Foretinib] (partner 0.25 µM)
# Method in brief: as §1
# [4] = compound: COc1cc2ncn(-c3cc(OCc4ccccc4C(F)(F)F)c(C(N)=O)s3)c2cc1OC + CS(=O)(=O)CCNCc1ccc(-c2ccc3ncnc(Nc4ccc(OCc5cccc(F)c5)c(Cl)c4)c3c2)o1 [Lapatinib] (partner 2 µM)
# Method in brief: as §1
# [5] = compound: COc1cc2ncn(-c3cc(OCc4ccccc4C(F)(F)F)c(C(N)=O)s3)c2cc1OC + CS(=O)(=O)N1CCN(Cc2cc3nc(-c4cccc5[nH]ncc45)nc(N4CCOCC4)c3s2)CC1 [Pictilisib] (partner 1 µM)
# Method in brief: as §1
# [6] = compound: COc1cc2ncn(-c3cc(OCc4ccccc4C(F)(F)F)c(C(N)=O)s3)c2cc1OC + C[C@@H](Oc1cc(-c2cnn(C3CCNCC3)c2)cnc1N)c1c(Cl)ccc(F)c1Cl [Crizotinib] (partner 1 µM)
# Method in brief: as §1
# [7] = compound: COc1cc2ncn(-c3cc(OCc4ccccc4C(F)(F)F)c(C(N)=O)s3)c2cc1OC + C[C@]1(O)C[C@@H](c2nc(-c3ccc4ccc(-c5ccccc5)nc4c3)c3c(N)nccn32)C1 [Linsitinib] (partner 1 µM)
# Method in brief: as §1
# [8] = compound: COc1cc2ncn(-c3cc(OCc4ccccc4C(F)(F)F)c(C(N)=O)s3)c2cc1OC + Cc1nc(NC(=O)N2CCC[C@H]2C(N)=O)sc1-c1ccnc(C(C)(C)C(F)(F)F)c1 [Alpelisib] (partner 2 µM)
# Method in brief: as §1
# [9] = compound: COc1cc2ncn(-c3cc(OCc4ccccc4C(F)(F)F)c(C(N)=O)s3)c2cc1OC + N=C(N)NC(=N)NCCc1ccccc1 [Phenformin] (partner 250 µM)
# Method in brief: as §1
# [10] = compound: COc1cc2ncn(-c3cc(OCc4ccccc4C(F)(F)F)c(C(N)=O)s3)c2cc1OC + Nc1ncn([C@H]2C[C@H](O)[C@@H](CO)O2)c(=O)n1 [Decitabine] (partner 2 µM)
# Method in brief: as §1
# [11] = compound: COc1cc2ncn(-c3cc(OCc4ccccc4C(F)(F)F)c(C(N)=O)s3)c2cc1OC + O=C(c1cc(Cc2n[nH]c(=O)c3ccccc23)ccc1F)N1CCN(C(=O)C2CC2)CC1 [Olaparib] (partner 8 µM)
# Method in brief: as §1
# [12] = compound: COc1cc2ncn(-c3cc(OCc4ccccc4C(F)(F)F)c(C(N)=O)s3)c2cc1OC + CC(=O)Nc1cccc(-n2c(=O)n(C3CC3)c(=O)c3c(Nc4ccc(I)cc4F)n(C)c(=O)c(C)c32)c1 [Trametinib] (partner 0.02 µM)
# Method in brief: as §1
# [13] = compound: COc1cc2ncn(-c3cc(OCc4ccccc4C(F)(F)F)c(C(N)=O)s3)c2cc1OC + CC(=O)c1c(C)c2cnc(Nc3ccc(N4CCNCC4)cn3)nc2n(C2CCCC2)c1=O [Palbociclib] (partner 0.5 µM)
# Method in brief: as §1
# [14] = compound: COc1cc2ncn(-c3cc(OCc4ccccc4C(F)(F)F)c(C(N)=O)s3)c2cc1OC + CCNC(=O)c1noc(-c2cc(C(C)C)c(O)cc2O)c1-c1ccc(CN2CCOCC2)cc1 [Luminespib] (partner 0.01 µM)
# Method in brief: as §1
# [15] = compound: COc1cc2ncn(-c3cc(OCc4ccccc4C(F)(F)F)c(C(N)=O)s3)c2cc1OC + COc1cccc2cc(-c3nc([C@H]4CC[C@H](C(=O)O)CC4)n4ncnc(N)c34)[nH]c12 [OSI-027] (partner 0.5 µM)
# Method in brief: as §1
# [16] = compound: COc1cc2ncn(-c3cc(OCc4ccccc4C(F)(F)F)c(C(N)=O)s3)c2cc1OC + Cc1cc(Nc2cc(N3CCN(C)CC3)nc(Sc3ccc(NC(=O)C4CC4)cc3)n2)n[nH]1 [Tozasertib] (partner 0.1 µM)
# Method in brief: as §1
# [17] = compound: COc1cc2ncn(-c3cc(OCc4ccccc4C(F)(F)F)c(C(N)=O)s3)c2cc1OC + Cc1nc(Nc2ncc(C(=O)Nc3c(C)cccc3Cl)s2)cc(N2CCN(CCO)CC2)n1 [Dasatinib] (partner 0.075 µM)
# Method in brief: as §1
# [18] = compound: COc1cc2ncn(-c3cc(OCc4ccccc4C(F)(F)F)c(C(N)=O)s3)c2cc1OC + NC(=O)Nc1cc(-c2cccc(F)c2)sc1C(=O)N[C@H]1CCCNC1 [AZD7762] (partner 0.2 µM)
# Method in brief: as §1
# [19] = compound: COc1cc2ncn(-c3cc(OCc4ccccc4C(F)(F)F)c(C(N)=O)s3)c2cc1OC + Nc1nc2[nH]cc(CCc3ccc(C(=O)N[C@@H](CCC(=O)O)C(=O)O)cc3)c2c(=O)[nH]1 [Pemetrexed] (partner 0.2 µM)
# Method in brief: as §1
# [20] = compound: COc1cc2ncn(-c3cc(OCc4ccccc4C(F)(F)F)c(C(N)=O)s3)c2cc1OC + O=C(CCCCCCC(=O)Nc1ccccc1)NO [Vorinostat] (partner 1 µM)
# Method in brief: as §1
cell line,measurement,setting,value
A549,relative viability,[1]; 0.05 µM,0.987
same,relative viability,[1]; 0.1581 µM,1.01
same,relative viability,[1]; 0.5 µM,0.399
same,relative viability,[1]; 1.581 µM,0.0506
same,relative viability,[1]; 5 µM,0.054
same,relative viability,[2]; first compound 0.05 µM,1.25
same,relative viability,[2]; first compound 0.1581 µM,1.19
same,relative viability,[2]; first compound 0.5 µM,0.294
same,relative viability,[2]; first compound 1.581 µM,0.0413
same,relative viability,[2]; first compound 5 µM,0.0332
same,relative viability,[3]; first compound 0.05 µM,0.979
same,relative viability,[3]; first compound 0.1581 µM,1.03
same,relative viability,[3]; first compound 0.5 µM,0.423
same,relative viability,[3]; first compound 1.581 µM,0.0316
same,relative viability,[3]; first compound 5 µM,0.0318
same,relative viability,[4]; first compound 0.05 µM,0.984
same,relative viability,[4]; first compound 0.1581 µM,0.862
same,relative viability,[4]; first compound 0.5 µM,0.0918
same,relative viability,[4]; first compound 1.581 µM,0.0675
same,relative viability,[4]; first compound 5 µM,0.065
same,relative viability,[5]; first compound 0.05 µM,0.606
same,relative viability,[5]; first compound 0.1581 µM,0.55
same,relative viability,[5]; first compound 0.5 µM,0.0875
same,relative viability,[5]; first compound 1.581 µM,0.0523
same,relative viability,[5]; first compound 5 µM,0.0706
same,relative viability,[6]; first compound 0.05 µM,0.864
same,relative viability,[6]; first compound 0.1581 µM,0.612
same,relative viability,[6]; first compound 0.5 µM,0.104
same,relative viability,[6]; first compound 1.581 µM,0.0479
same,relative viability,[6]; first compound 5 µM,0.102
same,relative viability,[7]; first compound 0.05 µM,0.63
same,relative viability,[7]; first compound 0.1581 µM,0.714
same,relative viability,[7]; first compound 0.5 µM,0.386
same,relative viability,[7]; first compound 1.581 µM,0.0698
same,relative viability,[7]; first compound 5 µM,0.29
same,relative viability,[8]; first compound 0.05 µM,0.802
same,relative viability,[8]; first compound 0.1581 µM,0.753
same,relative viability,[8]; first compound 0.5 µM,0.186
same,relative viability,[8]; first compound 1.581 µM,0.0572
same,relative viability,[8]; first compound 5 µM,0.0466
same,relative viability,[9]; first compound 0.05 µM,0.152
same,relative viability,[9]; first compound 0.1581 µM,0.145
same,relative viability,[9]; first compound 0.5 µM,0.0554
same,relative viability,[9]; first compound 1.581 µM,0.0361
same,relative viability,[9]; first compound 5 µM,0.0267
same,relative viability,[10]; first compound 0.05 µM,0.253
same,relative viability,[10]; first compound 0.1581 µM,0.237
same,relative viability,[10]; first compound 0.5 µM,0.212
same,relative viability,[10]; first compound 1.581 µM,0.0645
same,relative viability,[10]; first compound 5 µM,0.0614
same,relative viability,[11]; first compound 0.05 µM,0.344
same,relative viability,[11]; first compound 0.1581 µM,0.215
same,relative viability,[11]; first compound 0.5 µM,0.149
same,relative viability,[11]; first compound 1.581 µM,0.0485
same,relative viability,[11]; first compound 5 µM,0.0961
NCI-H522,relative viability,[1]; 0.05 µM,1.02
same,relative viability,[1]; 0.1581 µM,0.91
same,relative viability,[1]; 0.5 µM,0.935
same,relative viability,[1]; 1.581 µM,0.561
same,relative viability,[1]; 5 µM,0.308
same,relative viability,[12]; first compound 0.05 µM,0.654
same,relative viability,[12]; first compound 0.1581 µM,0.748
same,relative viability,[12]; first compound 0.5 µM,0.657
same,relative viability,[12]; first compound 1.581 µM,0.673
same,relative viability,[12]; first compound 5 µM,0.335
same,relative viability,[13]; first compound 0.05 µM,0.886
same,relative viability,[13]; first compound 0.1581 µM,0.866
same,relative viability,[13]; first compound 0.5 µM,0.842
same,relative viability,[13]; first compound 1.581 µM,1.01
same,relative viability,[13]; first compound 5 µM,0.401
same,relative viability,[14]; first compound 0.05 µM,1.1
same,relative viability,[14]; first compound 0.1581 µM,0.899
same,relative viability,[14]; first compound 0.5 µM,1.16
same,relative viability,[14]; first compound 1.581 µM,0.787
same,relative viability,[14]; first compound 5 µM,0.737
same,relative viability,[15]; first compound 0.05 µM,0.692
same,relative viability,[15]; first compound 0.1581 µM,0.757
same,relative viability,[15]; first compound 0.5 µM,0.621
same,relative viability,[15]; first compound 1.581 µM,0.444
same,relative viability,[15]; first compound 5 µM,0.415
same,relative viability,[16]; first compound 0.05 µM,0.481
same,relative viability,[16]; first compound 0.1581 µM,0.549
same,relative viability,[16]; first compound 0.5 µM,0.58
same,relative viability,[16]; first compound 1.581 µM,0.536
same,relative viability,[16]; first compound 5 µM,0.454
same,relative viability,[17]; first compound 0.05 µM,0.937
same,relative viability,[17]; first compound 0.1581 µM,0.846
same,relative viability,[17]; first compound 0.5 µM,0.814
same,relative viability,[17]; first compound 1.581 µM,0.628
same,relative viability,[17]; first compound 5 µM,0.369
same,relative viability,[9]; first compound 0.05 µM,0.741
same,relative viability,[9]; first compound 0.1581 µM,0.581
same,relative viability,[9]; first compound 0.5 µM,0.612
same,relative viability,[9]; first compound 1.581 µM,0.484
same,relative viability,[9]; first compound 5 µM,0.404
same,relative viability,[18]; first compound 0.05 µM,1.01
same,relative viability,[18]; first compound 0.1581 µM,0.769
same,relative viability,[18]; first compound 0.5 µM,0.766
same,relative viability,[18]; first compound 1.581 µM,0.461
same,relative viability,[18]; first compound 5 µM,0.417
same,relative viability,[19]; first compound 0.05 µM,0.965
same,relative viability,[19]; first compound 0.1581 µM,0.842
same,relative viability,[19]; first compound 0.5 µM,0.742
same,relative viability,[19]; first compound 1.581 µM,0.812
same,relative viability,[19]; first compound 5 µM,0.377
same,relative viability,[10]; first compound 0.05 µM,0.574
same,relative viability,[10]; first compound 0.1581 µM,0.628
same,relative viability,[10]; first compound 0.5 µM,0.54
same,relative viability,[10]; first compound 1.581 µM,0.618
same,relative viability,[10]; first compound 5 µM,0.36
same,relative viability,[20]; first compound 0.05 µM,0.962
same,relative viability,[20]; first compound 0.1581 µM,1.1
same,relative viability,[20]; first compound 0.5 µM,0.733
same,relative viability,[20]; first compound 1.581 µM,0.292
same,relative viability,[20]; first compound 5 µM,0.237
same,relative viability,[11]; first compound 0.05 µM,0.51
same,relative viability,[11]; first compound 0.1581 µM,0.714
same,relative viability,[11]; first compound 0.5 µM,0.621
same,relative viability,[11]; first compound 1.581 µM,0.517
same,relative viability,[11]; first compound 5 µM,0.337
